In article PMC7006651, “Effect of 6-Benzoyl-benzothiazol-2-one scaffold on the pharmacological profile of α-alkoxyphenylpropionic acid derived PPAR agonists” (Journal of Enzyme Inhibition and Medicinal Chemistry, 2020):

What was measured:
[1] = target: T1, human PPARα (Homo sapiens, UniProt Q07869); test: Gene reporter (transactivation) assay, Cos-7 cells transfected with pGal4-hPPARα; format: cell-based; settings: for Emax: COS-7, 24 h, Emax relative to maximum activation with WY14643 (10 µM) = 100%, read-out: hPPAR gene reporter αGal4 (%); for EC50: GAL4 chimeric hPPARα, 24 h, read-out: hPPAR gene reporter αEC50;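 for all read-outs here: luciferase signal from a Gal4-driven reporter normalised to cotransfected β-galactosidase activity, cells exposed to rising compound concentrations with DMSO vehicle as control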
T1 construct: expressed in transfected cells; host or cells: Cos-7
T1 sequence (Q07869 239-466 limits assumed): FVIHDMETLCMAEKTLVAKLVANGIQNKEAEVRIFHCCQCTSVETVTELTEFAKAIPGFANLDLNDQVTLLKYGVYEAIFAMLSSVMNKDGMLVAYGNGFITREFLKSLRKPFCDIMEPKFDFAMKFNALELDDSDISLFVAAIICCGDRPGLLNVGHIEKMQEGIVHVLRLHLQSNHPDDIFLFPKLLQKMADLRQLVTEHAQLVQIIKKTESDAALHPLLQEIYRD
Procedure: (§1) Cos-7 cells were transiently transfected with luciferase reporter plasmid (pG5-TK-pGL3) in the presence of pGal4-hPPARα or pGal4-hPPARγ (these vectors express chimeric proteins containing the Gal4 DNA-binding domain fused to the human PPARα or PPARγ ligand binding domain coding sequence) expression vector. […] Cells were transfected in OptiMEM without FCS for 3 h at 37°, using polyethylenimine (PEI), with reporter and expression plasmids, as stated in figure’s legend. The plasmid pBluescript (Stratagene, La Jolla, CA) was used as carrier DNA to set the final amount of DNA to 5.5 µg/dish. The pCMV- ß-galactosidase expression plasmid was cotransfected as a control for transfection efficiency. […] After 16 h, cells were trypsinised and seeded in 96-well plates at the density of 2 × 10^4 cells/well and incubated for 6 h in 10% FCS containing DMEM. Cells were then incubated for 24 h in DMEM containing 0.2% FCS and increasing concentrations of the compound tested or vehicle (DMSO). At the end of the experiment, cells were washed once with ice-cold PBS and the luciferase and the β–galactosidase assays were performed as described previously[20]. Cells were incubated 24 h in the presence of indicated concentrations of compound. Luciferase activity was measured and normalised to internal control β-galactosidase activity. […] EC50 were estimated using Prism software (GraphPad). All transfection experiments were performed at least three times.

[2] = target: T2, human PPARγ (Homo sapiens, UniProt P37231); test: Membrane-bound PPARγ binding assay ([3H]rosiglitazone competition, filtration); settings: competition with [3H]rosiglitazone (4 nM), 180 min at 4 °C; read-out: Ki (nM), hPPARγ binding affinity
T2 sequence (P37231 235-505 limits assumed): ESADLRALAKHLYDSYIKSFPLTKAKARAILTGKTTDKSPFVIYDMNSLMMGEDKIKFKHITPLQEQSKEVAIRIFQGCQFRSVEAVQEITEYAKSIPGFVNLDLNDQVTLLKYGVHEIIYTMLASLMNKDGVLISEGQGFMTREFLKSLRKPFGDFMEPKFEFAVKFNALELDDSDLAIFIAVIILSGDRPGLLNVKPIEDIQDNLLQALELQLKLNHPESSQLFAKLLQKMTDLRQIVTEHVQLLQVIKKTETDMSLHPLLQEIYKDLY
Procedure: The membrane-associated PPARγ was used as the biological source as previously described. Binding buffer consisted of 10 mM Tris/HCl, pH 8.2, containing 50 mM KCl and 1 mM dithiothreitol. […] Radioactivity was measured in a TopCount apparatus (Packard).

[3] = test system: CaCO2 cells; test: CaCo2 cell absorption (membrane permeability model); format: in vitro ADME; settings: percentage of absorption
Procedure: The in vivo effect of test compounds was determined by measuring glycaemia, triglyceridemia, insulinemia, and body weight using ob/ob mice (Table 3). The ob/ob mice were obese, insulin resistant with hypertriglyceridaemia and hyperglycaemia, and have been used as a rodent model of obesity-induced insulin resistance. […] As a side effect index, body weight was also measured daily, and body weight variation was calculated as a percentage of the difference in body weight between days 4 and 0. […] Benzoyl derivatives 32a, 41a and 42a were not evaluated in vivo with regard to their low absorption values with CaCO2 cells (< 25%), an in vitro model predicting membrane permeability. […] Indeed, incorporation of substituents such as methyl oxime ether and trifluoroethoxy group are benefiting for PPAR activity regulation and so for effective management of dyslipidemia without inducing body weight gain. […] The CF3 group incorporation, beyond keeping a good in vivo efficacy, provided a robust reduction of body weight induced with compound 44a, strengthening the beneficial pharmacological effect of C-H bond replacement with fluorine. Compound 44 b may be considered as a SPPARγM since this full PPARγ agonist retains the insulin-sensitizing and glucose-lowering actions while mitigating or eliminating the undesirable side effects.

[4] = target: T3, human PPARγ (Homo sapiens, UniProt P37231); test: Gene reporter (transactivation) assay, Cos-7 cells transfected with pGal4-hPPARγ; format: cell-based; settings: Cos-7 cells, 24 h; for Emax: COS-7, 24 h, Emax relative to maximum activation with rosiglitazone (1 μM) = 100%, read-out: hPPAR gene reporter γGal4 (%); for EC50: GAL4 chimeric hPPARγ, read-out: hPPAR gene reporter γEC50;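 for all read-outs here: luciferase reporter (pG5-TK) activity normalised to cotransfected β-galactosidase, cells exposed to increasing compound concentrations in DMEM with 0.2% FCS, DMSO vehicle as control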
T3 construct: expressed in transfected cells; host or cells: Cos-7
T3 sequence (P37231 238-503 limits assumed): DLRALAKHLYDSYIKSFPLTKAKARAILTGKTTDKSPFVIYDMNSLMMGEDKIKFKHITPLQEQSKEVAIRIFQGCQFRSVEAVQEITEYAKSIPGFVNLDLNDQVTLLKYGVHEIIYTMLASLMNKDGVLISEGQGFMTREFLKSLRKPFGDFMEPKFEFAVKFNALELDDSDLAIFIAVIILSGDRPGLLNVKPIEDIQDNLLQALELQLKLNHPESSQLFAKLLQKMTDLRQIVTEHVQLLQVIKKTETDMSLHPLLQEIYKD
Procedure: as §1

[5] = test system: ob/ob mice; test: In vivo ob/ob mice: glycaemia, triglyceridemia, insulinemia, body weight; settings: oral, 4 days; for ΔBW (body weight variation between day 0 and day 4): expressed in % of rosiglitazone in the same study (= 100%), ob/ob mice; for ΔBW (body weight variation between day 0 and day 4) / Change (%) Gly (glycemia) / Change (%) Ins (insulin) / Change (%) TG (triglycerides): synthesised compounds 8.4 µMkg^−1, references 3 mgkg^−1; for Change (%) Gly (glycemia) / Change (%) Ins (insulin) / Change (%) TG (triglycerides): percent change versus control, ob/ob mice at day 4;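 for all read-outs here: male ob/ob mice aged 10–12 weeks, given the compound once daily by oral gavage as a 1% hydroxyethylcellulose suspension, 8–12 animals per group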
Procedure: The glucose- and triglyceride-lowering activities of the compounds prepared were then tested using 10–12-week-old male ob/ob mice. […] Mice had access to filtered (0.22 mm) tap water ad libitum and irradiated pelleted laboratory chow (transbreed, Special Diet Services, England) throughout the study. Compounds were prepared as a suspension in 1% hydroxyethylcellulose (HEC) for oral administration (10 mLkg^−1). The mice (n = 8–12 per group) were dosed by gavage daily between 15:00 and 17:00 for 4 days. Randomisation was performed based on glycaemia values. The body weight gain (DBW in grams) of the animals was determined by measuring the difference between body weight at the beginning and end of the study for each mouse. At day 5 between 9:00 and 11:00 the mice were weighed, and blood samples were collected into heparin-containing tubes by retro-orbital puncture (500 mL per mouse). […] Plasma samples were prepared by centrifugation (2000 g for 10 min), and stored at −20 °C. For triglycerides and insulin determination, the percent change in plasma level in the treated group was calculated relative to the mean plasma level in the vehicle-treated group. ANOVA, followed by Dunnett’s comparison test (one-tailed) was used to estimate significant differences between the plasma glycaemia, triglycerides, insulin, and DBW values between the control group and the individual compound-treated groups.

Structure (SMILES) | Emax [1] | Ki [2] | absorption with CaCO2 cells (CaCo2 permeability) [3] | melting point | Emax [4] | EC50 [4] | ΔBW (body weight variation between day 0 and day 4) [5] | in vivo activity in ob/ob mice [5] | Change (%) Gly (glycemia) [5] | Change (%) Ins (insulin) [5] | Change (%) TG (triglycerides) [5] | EC50 [1]
CCO[C@H](Cc1ccc(OCCn2c(=O)sc3cc(C(=O)c4ccccc4)ccc32)cc1)C(=O)O [Compound 42a, (R)-3-{4-[2–(6-benzoyl-2-oxo-benzothiazol-3-yl)-ethoxy]-phenyl}-2-ethoxypropionic acid] | 0% | 70 nM | < 25% | 57 to 59 °C | 39% | 300 nM | – | – | – | – | – | –
CCO[C@H](Cc1ccc(OCCn2c(=O)sc3cc(/C(=N/O)c4ccccc4)ccc32)cc1)C(=O)O [Compound 45a, (R)-3-{4-[2–(6-[(E)-hydroxyimino-phenyl-methyl]-2-oxo-benzothiazol-3-yl)-ethoxy]-phenyl}-2-ethoxypropionic acid] | 30% | 210 nM | 31% | 84 to 85 °C | 66% | 799 nM | 328% | inactive | −7% | 51% | 21% | –
CCOC(Cc1ccc(OCCn2c(=O)sc3cc(/C(=N/OC)c4ccccc4)ccc32)cc1)C(=O)O (stereo not drawn) [Compound 40a, 3-{4-[2–(6-[(E)-methoxyimino-phenyl-methyl]-2-oxo-benzothiazol-3-yl)-ethoxy]-phenyl}-2-ethoxypropionic acid] | 159% | 4 nM | – | 151 to 152 °C | 87% | 2 nM | 188% | – | −58% | −76% | −83% | 129 nM
CON=C(c1ccccc1)c1ccc2c(c1)sc(=O)n2CCOc1ccc(CC(OCC(F)(F)F)C(=O)O)cc1 (racemic) [Compound 40b, 3-{4-[2–(6-[(E)-methoxyimino-phenyl-methyl]-2-oxo-benzothiazol-3-yl)-ethoxy]-phenyl}-2–(2,2,2-trifluoro)ethoxypropionic acid] | 56% | 1.3 nM | – | 56 to 57 °C | 95% | 7 nM | −70% | – | −37% | −55% | −54% | 180 nM
CCOC(Cc1ccc(OCCn2c(=O)sc3cc(C(=O)c4ccccc4)ccc32)cc1)C(=O)O (stereo not drawn) [Compound 32a, 3-{4-[2–(6-benzoyl-2-oxo-benzothiazol-3-yl)-ethoxy]-phenyl}-2-ethoxypropionic acid] | ≥ 80% | 4 nM | < 25% | 57 to 59 °C | ≥ 80% | 15 nM | – | – | – | – | – | 2400 nM
CCOC(Cc1ccc(OCCn2c(=O)sc3cc(/C(=N/O)c4ccccc4)ccc32)cc1)C(=O)O (stereo not drawn) [Compound 39a, 3-{4-[2–(6-[(E)-hydroxyimino-phenyl-methyl]-2-oxo-benzothiazol-3-yl)-ethoxy]-phenyl}-2-ethoxypropionic acid] | 129% | 2 nM | – | 84 to 85 °C | 91% | 24 nM | −10% | – | −49% | −34% | −69% | –
CCO[C@@H](Cc1ccc(OCCn2c(=O)sc3cc(C(=O)c4ccccc4)ccc32)cc1)C(=O)O [Compound 41a, (S)-3-{4-[2–(6-benzoyl-2-oxo-benzothiazol-3-yl)-ethoxy]-phenyl}-2-ethoxypropionic acid] | 166% | 0.5 nM | < 25% | 57 to 59 °C | 142% | 8 nM | – | – | – | – | – | 522 nM
